Patent publication US11083725B2 (priority 2014, dated 2021)

System: NHBE cells
Assay: Biolog metabolic array: substrate use by NHBE cells with or without CA09 infection
Type: cell-based, human
Conditions: for Substrate use, 590 nm absorbance normalized to zero hour, 0 hr: Biolog PMM2, 0 hr; for Substrate use, 590 nm absorbance normalized to zero hour, 1 hr: Biolog PMM2, 1 hr; for Substrate use, 590 nm absorbance normalized to zero hour, 5 hr: Biolog PMM2, 5 hr; for Substrate use, 590 nm absorbance normalized to zero hour, 7 hr: Biolog PMM2, 7 hr
[1] = Control (uninfected) NHBE cells
[2] = Virus (CA09, MOI 1) infected NHBE cells
[3] = Virus (CA09-infected, MOI 1) NHBE cells
[4] = Virus: CA09-infected NHBE cells, MOI 1, Biolog PMM2

| SMILES | 590 nm absorbance normalized to zero hour (substrate use), 1 hr [1] | 590 nm absorbance normalized to zero hour (substrate use), 2 hr [1] | 590 nm absorbance normalized to zero hour (substrate use), 3 hr [1] | 590 nm absorbance normalized to zero hour (substrate use), 4 hr [1] | 590 nm absorbance normalized to zero hour (substrate use), 6 hr [1] | 590 nm absorbance normalized to zero hour (substrate use), 8 hr [1] | 590 nm absorbance normalized to zero hour (substrate use), 9 hr [1] | 590 nm absorbance normalized to zero hour (substrate use), 10 hr [1] | 590 nm absorbance normalized to zero hour (substrate use), 11 hr [1] | Substrate use, 590 nm absorbance normalized to zero hour, 1 hr [1] | Substrate use, 590 nm absorbance normalized to zero hour, 5 hr [1] | Substrate use, 590 nm absorbance normalized to zero hour, 7 hr [1] | 590 nm absorbance normalized to zero hour (substrate use), 1 hr [3] | 590 nm absorbance normalized to zero hour (substrate use), 2 hr [3] | 590 nm absorbance normalized to zero hour (substrate use), 3 hr [3] | 590 nm absorbance normalized to zero hour (substrate use), 4 hr [3] | 590 nm absorbance normalized to zero hour (substrate use), 6 hr [3] | 590 nm absorbance normalized to zero hour (substrate use), 8 hr [3] | 590 nm absorbance normalized to zero hour (substrate use), 9 hr [3] | 590 nm absorbance normalized to zero hour (substrate use), 10 hr [3] | further results |
| --- | --- | --- | --- | --- | --- | --- | --- | --- | --- | --- | --- | --- | --- | --- | --- | --- | --- | --- | --- | --- | --- |
| CO[C@H]1O[C@H](CO)[C@@H](O)[C@H](O)[C@H]1O [a-Methyl-D-Glucoside] | 1.18 | 1.07 | 1.02 | 0.58 | 0.90 | 0.74 | 0.79 | 0.83 | 0.93 | 1.18 | 0.76 | 0.68 | 1.29 | 1.66 | 1.87 | 1.99 | 2.50 | 2.77 | 3.14 | 3.10 | 590 nm absorbance normalized to zero hour (substrate use), 0 hr [1]: 1.00; Substrate use, 590 nm absorbance normalized to zero hour, 0 hr [1]: 1.00; Substrate use, 590 nm absorbance normalized to zero hour, 0 hr [2]: 1.00; Substrate use, 590 nm absorbance normalized to zero hour, 1 hr [2]: 1.29; Substrate use, 590 nm absorbance normalized to zero hour, 5 hr [2]: 2.31; Substrate use, 590 nm absorbance normalized to zero hour, 7 hr [2]: 2.67; 590 nm absorbance normalized to zero hour (substrate use), 0 hr [3]: 1.00; 590 nm absorbance normalized to zero hour (substrate use), 11 hr [3]: 3.31 |
| CC[C@H](O)C(=O)O (racemic) [D,L-a-Hydroxy-Butyric Acid] | 0.92 | 1.05 | 0.99 | 1.01 | 0.56 | 0.72 | 1.79 | 0.74 | 2.19 | 0.92 | 1.18 | 1.41 | 1.29 | 1.58 | 1.74 | 1.84 | 2.10 | 2.26 | 2.35 | 2.39 | 590 nm absorbance normalized to zero hour (substrate use), 0 hr [1]: 1.00; Substrate use, 590 nm absorbance normalized to zero hour, 0 hr [1]: 1.00; 590 nm absorbance normalized to zero hour (substrate use), 0 hr [3]: 1.00; 590 nm absorbance normalized to zero hour (substrate use), 5 hr [3]: 2.00; 590 nm absorbance normalized to zero hour (substrate use), 7 hr [3]: 2.18; 590 nm absorbance normalized to zero hour (substrate use), 11 hr [3]: 2.21; 590 nm absorbance normalized to zero hour (substrate use), 0 hr [4]: 1.00; 590 nm absorbance normalized to zero hour (substrate use), 1 hr [4]: 1.29; 590 nm absorbance normalized to zero hour (substrate use), 2 hr [4]: 1.58; 590 nm absorbance normalized to zero hour (substrate use), 3 hr [4]: 1.74; 590 nm absorbance normalized to zero hour (substrate use), 4 hr [4]: 1.84; 590 nm absorbance normalized to zero hour (substrate use), 5 hr [4]: 2.00; 590 nm absorbance normalized to zero hour (substrate use), 6 hr [4]: 2.10; 590 nm absorbance normalized to zero hour (substrate use), 7 hr [4]: 2.18; 590 nm absorbance normalized to zero hour (substrate use), 8 hr [4]: 2.26; 590 nm absorbance normalized to zero hour (substrate use), 9 hr [4]: 2.35; 590 nm absorbance normalized to zero hour (substrate use), 10 hr [4]: 2.39; 590 nm absorbance normalized to zero hour (substrate use), 11 hr [4]: 2.21 |
| O=C[C@@H](O)[C@H](O)[C@H](O)CO [D-Arabinose] | 1.59 | 1.50 | 0.77 | 1.35 | 0.39 | 1.00 | 1.14 | 0.96 | 1.35 | 1.59 | 0.99 | 1.04 | 0.65 | 0.90 | 1.03 | 1.07 | 1.29 | 1.33 | 1.34 | 1.38 | 590 nm absorbance normalized to zero hour (substrate use), 5 hr [3]: 1.22; 590 nm absorbance normalized to zero hour (substrate use), 7 hr [3]: 1.37; 590 nm absorbance normalized to zero hour (substrate use), 11 hr [3]: 1.58; 590 nm absorbance normalized to zero hour (substrate use), 1 hr [4]: 0.65; 590 nm absorbance normalized to zero hour (substrate use), 2 hr [4]: 0.90; 590 nm absorbance normalized to zero hour (substrate use), 3 hr [4]: 1.03; 590 nm absorbance normalized to zero hour (substrate use), 4 hr [4]: 1.07; 590 nm absorbance normalized to zero hour (substrate use), 5 hr [4]: 1.22; 590 nm absorbance normalized to zero hour (substrate use), 6 hr [4]: 1.29; 590 nm absorbance normalized to zero hour (substrate use), 7 hr [4]: 1.37; 590 nm absorbance normalized to zero hour (substrate use), 8 hr [4]: 1.33; 590 nm absorbance normalized to zero hour (substrate use), 9 hr [4]: 1.34; 590 nm absorbance normalized to zero hour (substrate use), 10 hr [4]: 1.38; 590 nm absorbance normalized to zero hour (substrate use), 11 hr [4]: 1.58 |
